Measurements taken from US11110139B2, “Application of anthocyanin extract in preparing pharmaceutical composition for preventing and treating cardiac toxicity induced by anthracyclines and pharmaceutical composition” (Northwest Institute of Plateau Biology, Chinese Academy of …, priority 2017, dated 2021).

What was measured:
[1] = tested on: rat cardiomyocyte cell line H9c2; type: cell-based; settings: 24 h, 20 μM
Protocol: A rat cardiomyocyte cell line H9c2: a DMEM culture medium (containing 10% new-born calf serum, 2 mM glutamate and 1% streptomycin/penicillin) was employed to culture, and a culture condition was an aseptic environment at 37° C. and 5% CO2. The culture medium was replaced once every 2-3 d, and when cells were cultured for 24 h and 80% were aggregated, was transferred to a 96-well plate with a cell density being 1×10^5/well; after the cells were continued to culture for 24 h, a medicament treatment was performed. A control group, a model group (containing 20 μM DOX), and a nitraria anthocyanin extract experimental group (containing 20 μM DOX and 5-500 μg/mL nitraria anthocyanin extract) were respectively provided, and after they were treated for 24 h, a cell viability was detected by an MTT method.

[2] = tested on: rat cardiomyocyte cell line H9c2; type: cell-based; settings: 24 h, 20 μM; remark: listed apart in the source
Protocol: (§1) A rat cardiomyocyte cell line H9c2: a DMEM culture medium (containing 10% new-born calf serum, 2 mM glutamate and 1% streptomycin/penicillin) was employed to culture, and a culture condition was an aseptic environment at 37° C. and 5% CO2. The culture medium was replaced once every 2-3 d, and when cells were cultured for 24 h and 80% were aggregated, a medicament treatment was performed. A control group, a model group (containing 20 μM DOX), and a nitraria anthocyanin extract experimental group (containing 20 μM DOX and 5-500 μg/mL nitraria anthocyanin extract) were respectively provided, after they were treated for 24 h, an extracellular fluid was collected, and LDH and CK levels in the extracellular fluid were detected by employing LDH and CK array kits.

[3] = tested on: rat cardiomyocyte cell line H9c2; type: cell-based; settings: 24 h, 20 μM; remark: listed apart in the source
Protocol: as §1, with “C02.” for “CO2.”, “provided, and” for “provided,”, “a change in cardiomyocyte apoptosis” for “an extracellular fluid”, “was” for “was collected, and LDH and CK levels in the extracellular fluid were”, “by a flow cytometer according to operating instructions of a kit by” for “by”, “an FITC-Annexin V/propidium iodide (PI) fluorescence double staining method.” for “LDH and CK array kits.”

[4] = tested on: bcl-2, bax, caspase-3 and caspase-9 protein expression in H9c2; test: Western blot of bcl-2, bax, caspase-3 and caspase-9 in H9c2; type: cell-based, rat; settings: H9c2, 20 μM DOX alone, 24 h
Protocol: A rat cardiomyocyte cell line H9c2: a DMEM culture medium (containing 10% new-born calf serum, 2 mM glutamate and 1% streptomycin/penicillin) was employed to culture, and a culture condition was an aseptic environment at 37° C. and 5% CO2. The culture medium was replaced once every 2-3 d, and when cells were cultured for 24 h and 80% were aggregated, a medicament treatment was performed. A control group, a model group (containing 20 μM DOX), and a nitraria anthocyanin extract experimental group (containing 20 μM DOX and 5-500 μg/mL nitraria anthocyanin extract) were respectively provided, and after they were treated for 24 h, the cells were scrapped, and were collected by centrifugation; and after being cleaned by a phosphate buffer, the cells were resuspended in a lysis buffer. After cell debrises were removed by the centrifugation, a supernatant was collected and a soluble protein concentration was determined using a BCA protein concentration assay kit. A protein solute, after being separated by 12% SDS-PAGE electrophoresis, was transferred to a PVDF membrane and thereafter was labeled by bcl-2, bax, caspase-3 and caspase-9 antibodies. An optical density of a band was determined by Quantity One software (v4.62, American Bio-Rad Company). And αβ-tubulin was taken as a protein sample loading internal reference substance.

[5] = tested on: rat cardiomyocyte cell line H9c2; test: Aggregated level of cardiomyocyte ROS (DCFH-DA, flow cytometer); type: cell-based; settings: H9c2, 20 μM DOX alone, 24 h
Protocol: A rat cardiomyocyte cell line H9c2: a DMEM culture medium (containing 10% new-born calf serum, 2 mM glutamate and 1% streptomycin/penicillin) was employed to culture, and a culture condition was an aseptic environment at 37° C. and 5% CO2. The culture medium was replaced once every 2-3 d, and when cells were cultured for 24 h and 80% were aggregated, a medicament treatment was performed. A control group, a model group (containing 20 μM DOX), and a nitraria anthocyanin extract experimental group (containing 20 μM DOX and 5-500 μg/mL nitraria anthocyanin extract) were respectively provided, and after they were treated for 24 h, 2′, 7′-dichlorodihydro-fluorescein diacetate (DCFH-DA, 20 μM) was added to incubate for 20 min at 37° C., and a flow cytometer was employed to detect an aggregated level of cardiomyocyte ROS. According to experimental results (as shown in FIG. 8), after the 20 μM DOX is treated for 24 h, the aggregated level of the cardiomyocyte ROS is increased to 3.5 times of a normal cell; and after the DOX and the 5-500 μg/mL nitraria anthocyanin extract are co-treated for 24 h, the aggregated level of the cardiomyocyte ROS only is 2.16-3.29 times of the normal cell.

Structure (SMILES): COc1cccc2c1C(=O)c1c(O)c3c(c(O)c1C2=O)C[C@@](O)(C(=O)CO)C[C@@H]3O[C@H]1C[C@H](N)[C@H](O)[C@H](C)O1 [DOX, doxorubicin]
- cell viability, of a normal cell [1]: 62.12%
- CK level in the extracellular fluid, times of a normal cell [2]: 2.87 times
- LDH level in the extracellular fluid, times of a normal cell [2]: 2.65 times
- number of FITC-Annexin V positive cells [3]: 1.49%
- Bax/Bcl-2 protein expression ratio versus normal cell [4]: increased to two times of a normal cell
- bax protein expression [4]: significantly increased
- bcl-2 protein expression [4]: significantly reduced
- protein expression of cut and activated caspase-3 [4]: significantly increased
- protein expression of cut and activated caspase-9 [4]: significantly increased
- aggregated level of cardiomyocyte ROS, times of a normal cell [5]: 3.5 times
